Results reported in a compilation of properties of binary mixtures (doi:10.1007/s10953-017-0578-y).

Experiment: xn = mol fraction of the nth substance listed
Conditions: 100 kPa

For `CC[n+]1ccn(C)c1.F[B-](F)(F)F` + CNc1ccccc1, the speed of sound (293.15 K, x1 = 1) was 1632.6 m/s, the speed of sound (303.15 K, x1 = 1) was 1609.5 m/s and the speed of sound (313.15 K, x1 = 1) was 1586.2 m/s. It also gave a speed of sound (323.15 K, x1 = 1) of 1563.4 m/s.

With `CNc1ccccc1` + CC[n+]1ccn(C)c1.F[B-](F)(F)F the speed of sound (293.15 K, x2 = 0.1046) was 1603.9 m/s, the speed of sound (293.15 K, x2 = 0.2048) was 1617.6 m/s and the speed of sound (293.15 K, x2 = 0.3057) was 1627.9 m/s. It also gave a speed of sound (293.15 K, x2 = 0.3985) of 1632.7 m/s, a speed of sound (293.15 K, x2 = 0.5064) of 1632.5 m/s and a speed of sound (293.15 K, x2 = 0.6994) of 1627.7 m/s. For the same molecule, the speed of sound (293.15 K, x2 = 0.8005) was 1625.9 m/s, the speed of sound (293.15 K, x2 = 0.9084) was 1627 m/s and the speed of sound (303.15 K, x2 = 0.1046) was 1568.9 m/s. For the same molecule, the speed of sound (303.15 K, x2 = 0.2048) was 1586.9 m/s, the speed of sound (303.15 K, x2 = 0.3985) was 1603.8 m/s and the speed of sound (303.15 K, x2 = 0.5064) was 1604.7 m/s. The speed of sound (303.15 K, x2 = 0.6045) was 1604.1 m/s, the speed of sound (303.15 K, x2 = 0.6994) was 1602.6 m/s and the speed of sound (303.15 K, x2 = 0.8005) was 1601.3 m/s. It also gave a speed of sound (303.15 K, x2 = 0.9084) of 1604 m/s, a speed of sound (313.15 K, x2 = 0) of 1511.7 m/s and a speed of sound (313.15 K, x2 = 0.3057) of 1567 m/s. For the same molecule, the speed of sound (313.15 K, x2 = 0.3985) was 1574.4 m/s, the speed of sound (313.15 K, x2 = 0.5064) was 1576.1 m/s and the speed of sound (313.15 K, x2 = 0.6045) was 1578.3 m/s. For the same molecule, the speed of sound (313.15 K, x2 = 0.6994) was 1577.9 m/s, the speed of sound (313.15 K, x2 = 0.8005) was 1576.2 m/s and the speed of sound (313.15 K, x2 = 0.9084) was 1579.4 m/s. The speed of sound (323.15 K, x2 = 0) was 1476.4 m/s, the speed of sound (323.15 K, x2 = 0.1046) was 1500.3 m/s and the speed of sound (323.15 K, x2 = 0.2048) was 1523.6 m/s. The speed of sound (323.15 K, x2 = 0.3057) was 1537.2 m/s, the speed of sound (323.15 K, x2 = 0.3985) was 1545.6 m/s and the speed of sound (323.15 K, x2 = 0.5064) was 1549 m/s. The speed of sound (323.15 K, x2 = 0.6994) was 1551.6 m/s, the speed of sound (323.15 K, x2 = 0.8005) was 1550.4 m/s and the speed of sound (323.15 K, x2 = 0.9084) was 1553.3 m/s.
